We go through nine molecules from article PMC12980303, “Development of a novel risk score reflecting the relative harm potential of synthetic cannabinoids based on prevalence estimates, well‐documented intoxication cases and basic pharmacological data” (Addiction (Abingdon, England), 2025).

Data set [1] can be described thus: LC–MS/MS analysis of serum and urine samples of intoxication cases. In kind it is in vivo, human. To be noted: patient serum. Here is the method: (§1) The data on intoxication cases used for the development of this risk score were obtained from a prospective study. This study included patients who were treated in an emergency department room following the consumption of an NPS. Clinical symptoms and follow‐up information were documented using a structured questionnaire completed by the attending physicians. The methodology has been previously published. Residual serum (obtained from venous blood) and urine samples, accompanied by the completed questionnaires, were sent to the Poisons Information Center Freiburg for further analysis. The toxicological analyses of serum and urine samples were conducted at the Institute of Forensic Medicine Freiburg. No data was available on previous consumption patterns or potential development of tolerance after continued misuse. The study was conducted in accordance with the Declaration of Helsinki and approved by the regional ethics committee of the University of Freiburg (no. 235/13_130683). The intoxication cases included in this study are those in which SCRA use was confirmed by liquid chromatography tandem mass spectrometry (LC–MS/MS).
Serum/blood and urine analyses were conducted at the Institute of Forensic Medicine Freiburg using previously published LC–MS/MS methods, that were modified by adding further analytes present in ‘legal‐high’ products (‘herbal blends’, ‘C‐liquids’ or ‘research chemicals’), and covered approximately 100 different SCRAs. Detailed information can be found in the Supporting Information.
Urine samples were analysed according to previously published and validated method by Franz et al.^2. For sample preparation 0.5 mL of phosphate buffer (pH 6) and 30 μL of β-glucuronidase were added to 0.5 mL of urine. Incubation was for 60 min at 45°C. This was followed by protein precipitation using 1.5 mL acetonitrile containing the internal standard (c = 2 ng/mL) and 0.56 mL 10 M ammonium formate solution, followed by shaking and centrifugation. 1 mL of the organic phase was transferred into an autosampler vial and evaporated to dryness under N2. The samples were reconstituted in 200 μL mobile phase.
Urine sample analysis was performed on a Dionex UltiMate® 3000RS UHPLC (Thermo Scientific, Dreieich, Germany) coupled to an API 5000^TM triple quadrupole instrument with a TurboIonSpray® interface (Sciex, Darmstadt, Germany). Separation was performed on a Luna C18 100 Å (150 x 2 mm, 5 μm) column with the mobile phase consisting of 0.2% HCOOH and 2 mmol/L NH^4+HCOO^− in water (A) and acetonitrile (B).

The target of data set [2] is T1, hCB1 receptor (Homo sapiens, UniProt P21554). The experiment in a line: competitive [3H]CP‐55940 radioligand binding assay (hCB1 receptor affinity). To be noted: [3H]CP‐55940 competition, hCB1 membrane preparations (HEK293‐EBNA), Cheng–Prusoff, 95% CI in brackets. Here is the method: (§2) Receptor assays were performed on three different days and each concentration was tested in duplicate.
T1 sequence (P21554 whole entry): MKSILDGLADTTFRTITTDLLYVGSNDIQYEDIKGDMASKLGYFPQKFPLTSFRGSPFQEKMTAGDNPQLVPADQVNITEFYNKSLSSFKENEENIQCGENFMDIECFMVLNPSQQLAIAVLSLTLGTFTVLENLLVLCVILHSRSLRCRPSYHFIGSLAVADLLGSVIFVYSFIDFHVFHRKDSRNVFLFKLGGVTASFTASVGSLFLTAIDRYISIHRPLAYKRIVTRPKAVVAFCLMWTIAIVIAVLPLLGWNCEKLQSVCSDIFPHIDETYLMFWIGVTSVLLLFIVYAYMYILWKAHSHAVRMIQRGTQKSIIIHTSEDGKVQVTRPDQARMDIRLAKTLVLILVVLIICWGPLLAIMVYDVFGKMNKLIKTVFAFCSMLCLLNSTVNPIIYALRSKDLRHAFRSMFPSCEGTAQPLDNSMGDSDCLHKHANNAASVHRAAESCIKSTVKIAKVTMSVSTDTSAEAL
From the IC50, the respective Ki values were calculated using the Cheng–Prusoff equation [39].

Data set [3] concerns the target T1, hCB1 receptor. The experiment in a line: functional [35S]GTPγS hCB1 activation assay. In kind it is biochemical. To be noted: for Emax: read-out: [35S]‐GTPγS assay Emax [%] (95% CI). Here is the method:
as §2

Data set [4] can be described thus: risk score from prevalence in routine forensic samples and intoxication cases (G1, PSS, TSS). More on the design: species or system human. To be noted: for G total (risk score): G1+G2+G3, higher value = greater toxicological risk; for G2: mean Poison Severity Score (PSS) of all intoxications with the SCRA; for G3: mean Toxicological Significance Score (TSS) of all intoxications with the SCRA; for G1: proportion in intoxication cases relative to prevalence in routine serum/blood and urine samples per quarter, 2013–2021, >1 over‐represented in intoxications. The source says:
Therefore, higher values indicate substances with a higher risk. […] To take into account the severity of symptoms and the contribution of the specific NPS, two further summands were introduced. The first is based on the PSS, the second on the TSS. Again, higher values were associated with more severe symptoms and a stronger role of the NPS in causing the symptoms.
The risk score is composed of three components (parts G1, G2 and G3) and was designed as follows: (1) Gx=G1x+G2x+G3x,
Equation 2 takes into consideration several components: the number of intoxications with SCRA x in quarter k over the total number of intoxications of all investigated SCRAs in the same quarter; the number of serum/blood samples positive for SCRA x over the total number of serum/blood samples positive for all SCRAs plus the number of urine samples positive for SCRA x over the total number of urine samples positive for all SCRAs (this is divided by two to account for the two different sample types); and the number of quarters in which the SCRA x was prevalent. (2) G1x=∑k=1gak/bk/ck/dk+ek/fk/2/h+i
Consequently, equation 2 was mathematically rearranged. To further simplify the equation and reduce the formula signs, in equation 3 the following simplifications were taken: a/b=ai , c/d=as and e/f=au .
The sum of these quotients was divided by the number of all prevalent quarters (q p ). Prevalent quarters were defined as quarters in which on average the substance was detected in more than 5% of the positive serum and urine samples. If a poisoning occurred in a quarter in which the substance was not prevalent, the number of these quarters was added (q i ). This part of the score has similarities with an OR [42]. If the proportion of routine samples in a given quarter in which an intoxication with the respective substance occurred was zero (a s + a u = 0), a value of 0.01 was used for that quarter in the calculation of the quotient to avoid division by zero.
For part G2, the severity of the intoxication caused by the respective SCRA x was assessed on the basis of reported symptoms and follow‐up information using the PSS [20]. The PSS classifies the intoxication severity into five levels: (0) no, (1) mild, (2) moderate, (3) severe, and (4) fatal intoxication. […] For this purpose, the mean value of the PSS of all intoxications with the respective SCRA x was calculated ( G2x) .
For part G3, the involvement of the SCRA in the respective intoxications was assessed. This was evaluated on the basis of the TSS [21]. Elliott et al. developed the TSS to assess and classify the contribution of NPS in fatalities. In the present study, the TSS was determined to weigh the involvement of the investigated SCRA in the intoxication and the contribution of the SCRA to the observed symptoms. To determine the TSS value, factors such as the determined concentration of the SCRA, the presence of other recreational drugs or medicinal drugs, the general health of the patient and the consumption circumstances need to be considered. […] In cases with more than one drug detected, a TSS of 3 was only assigned where other compounds were present at concentrations below the range in which relevant effects are to be expected.
For the risk score, the mean value of the TSS of all intoxications with substance x was calculated ( G3x) . Analogous to the value of G2x , the value of G3x can theoretically be between 1 and 3. With a value of ‘1’, substance x was not mainly responsible for the symptoms in all of the intoxications (low level of significance), and with a value of ‘3’, it was the main cause in every poisoning in which it was detected.

Data set [5] can be described thus: occurrence of SCRAs in intoxication samples of the prospective study. More on the design: species or system human. To be noted: 2013 to 2021; for No. of intoxications: 139 intoxication samples of the prospective study; for Percentage in %: proportion of 139 intoxications in which the substance was detected.
Description: For this study, the 10 SCRAs (AB‐[…], ADB‐[…], AB‐FUBINACA, FUB‐AMB, Cumyl‐PEGACLONE, MDMB‐4en‐PINACA, MDMB‐CHMICA, 5F‐MDMB‐PICA, 5F‐ADB and 5F‐PB‐22) which were most frequently detected in intoxications in a prospective observational study during the time period of 2013 to 2021 were selected (see Table 1). Additionally, JWH‐210, a model compound representative of the early SCRAs, along with two substances prevalent in screenings during years 2019/2020 (5F‐Cumyl‐PEGACLONE and 4F‐MDMB‐BICA), were included in this study (see Tables S2–S7). […] JWH‐018 was also included as a reference compound because of its historical use in this capacity. Including both reference compounds facilitates direct comparison with previously published data, thereby enhancing the relevance and interpretability of the results obtained in the present study. Information on the origin of the test and reference compounds and all chemicals used in this study can be found in Table S1.
as §1

Data set [6] deals with T1, hCB1 receptor. To be noted: cited from earlier work; for EC50: read-out: βarr2 assay EC50 [nM] (95% CI); for βarr2 assay Emax [%] (95% CI): relative to CP‐55940.
For data set [7], the target named is T1, hCB1 receptor. More on the design: method as in Gamage et al. [40]. To be noted: cited from earlier work.
The mark [8] stands for this setting: intoxication case B (AB‐CHMINACA).

Structures are written as SMILES. Like-named read-outs stand apart in the source and are kept apart here. Marks after values point to notes of the source that are not given here. A value given as a limit tells only on which side of the number the result lay.

Regarding `CCCCCn1nc(C(=O)c2cccc3ccccc23)c2ccccc21` [THJ-018], the Concentration in serum in data set [1] (setting [8]) is on record as under 0.1 ng/mL.
In the case of `O=C(Oc1cccc2cccnc12)c1cn(CCCCCF)c2ccccc12` [5F‐PB‐22], the Ki on hCB1 receptor [2] (Ki [nM] (95% CI)) amounted to 0.0996 nM. On hCB1 receptor [3], the EC50 was 2.73 nM and the Emax is 124%. Moreover, in data set [4], the “G total (risk score)” value stood at 9.9, the G2 stood at 1.9, the G3 is 2.7 and the G1 is 5.3. In data set [5], this molecule gave a No. of intoxications of 13 and a Percentage in % of 9.4%. The Concentration in serum in data set [1] (setting [8]) was about 1.5 ng/mL. On hCB1 receptor [6] (ref Wouters et al. [31]), the EC50 is 0.32 nM and the “βarr2 assay Emax [%] (95% CI)” value was 980.2 ^d (888.2–1072) %.
Molecule `O=C(NC12CC3CC(CC(C3)C1)C2)c1nn(CCCCCF)c2ccccc12` [5F-AKB-48] came in with a Concentration in serum in data set [1] (setting [8]) of under 0.1 ng/mL.
The same measure, in the same setting: the same measure for `O=C(c1cccc2ccccc12)c1nn(CCCCCF)c2ccccc12` [THJ-2201]: under 0.1 ng/mL.
`CCCCCn1cc(C(=O)c2ccc(CC)c3ccccc23)c2ccccc21` [JWH‐210]: the Ki on hCB1 receptor [2] (read-out: Ki [nM] (95% CI)) turned out to be 1.43 nM. Further, at hCB1 receptor [3], the response was half-maximal at 41.9 nM (EC50) and the Emax worked out at 93.4%. Further, in data set [4], the “G total (risk score)” value was 5.7, the G2 is 1.6, the G3 came to 2.7 and the G1 turned out to be 1.4. In data set [5], this molecule returned a No. of intoxications of 3 and a Percentage in % of 2.2%. Moreover, on hCB1 receptor [6] (ref Cannaert et al. [45]), the EC50 was 25.3 nM. Also, the “βarr2 assay Emax [%] (95% CI)” value on hCB1 receptor [6] (originally normalised to JWH‐018, corrected with factor 0.3268, ref Cannaert et al. [45]) is reported as 714.2 (672.3–759.5) ^a ^, ^i %.
At hCB1 receptor [2] (Ki [nM] (95% CI)), `COC(=O)C(NC(=O)c1cn(CCCCCF)c2ccccc12)C(C)(C)C` (stereo not shown) [5F‐MDMB‐PICA] registered a Ki of 0.321 nM. Moreover, on hCB1 receptor [3], it took 7.88 nM to reach a half-maximal effect (EC50) and the Emax was 112%. Also, in data set [4], the “G total (risk score)” value is 8.1, the G2 is 2.1, the G3 is on record as 2.8 and the G1 was found to be 3.2. In data set [5], this molecule came in with a No. of intoxications of 15 and a Percentage in % of 11%. At hCB1 receptor [6] (ref Noble et al. [30]), the concentration for a half-maximal effect (EC50) is 3.26 nM. Besides, the “βarr2 assay Emax [%] (95% CI)” value on hCB1 receptor [6] (originally normalised to JWH‐018, corrected with factor 0.3268, ref Noble et al. [30]) is given as 1014 (951.7–1075) ^a %.
`CCCCCn1c2ccccc2c2c(=O)n(C(C)(C)c3ccccc3)ccc21` [Cumyl‐PEGACLONE] came in with a Ki on hCB1 receptor [2] (Ki [nM] (95% CI)) of 0.242 nM. In addition, at hCB1 receptor [3], the EC50 is 12.4 nM and the Emax was found to be 117%. For the same molecule, in data set [4], the “G total (risk score)” value was found to be 4.5, the G2 is 2.0, the G3 is reported as 2.2 and the G1 came out at 0.32. Moreover, in data set [5], the No. of intoxications was 5 and the Percentage in % is recorded as 3.6%. In addition, the EC50 at hCB1 receptor [6] (ref Janssens et al. [43]) was 0.23 nM. Besides, the “βarr2 assay Emax [%] (95% CI)” value at hCB1 receptor [6] (originally normalised to JWH‐018, corrected with factor 0.3268, ref Janssens et al. [43]) was 1053 (960.8–1148) ^a %.
Take `COC(=O)C(NC(=O)c1nn(Cc2ccc(F)cc2)c2ccccc12)C(C)C` (stereo not shown) [FUB‐AMB]: the EC50 on hCB1 receptor [7] (read-out: [35S]‐GTPγS assay EC50 [nM] (95% CI), ref Gamage et al. [40]) was 0.543 nM. Besides, at hCB1 receptor [7] (relative to CP‐55940, cell without footnote mark, EC50 of the same line from ref Gamage et al. [40]), the “[35S]‐GTPγS assay Emax [%] (95% CI)” value is recorded as 69.42 (62.6–76.2) %.
As for `CNC(C)C(=O)c1cccc(C)c1` (stereo not shown) [3‐MMC], the Concentration in serum is reported as 320 ng/mL in data set [1] (intoxication case A (AB‐CHMINACA)) and ~3-MMC approximately 320 ng/mL in data set [1] (intoxication case A (AB‐CHMINACA), listed as 3-MMC).
